{"source": "patent USRE34918E", "about": "“Azaazulene compounds which are useful as antiallergic and antiinflammatory agents” (Kaken Pharmaceutical Co., Ltd., priority 1988, dated 1995)", "key": {"[1]": {"system": "smooth musculus trachealis", "assay": "Relaxant activity of smooth musculus trachealis in guinea pig", "parameters": "species or system guinea pig (male Hartley)", "conditions": "Cavia porcellus; tracheal chain strips, 37° C.; read-out: Concentration for 50% relaxation", "description": "Male Hartley guinea pigs weighing 350 to 550 g were bleed to death, and immediately the tracheae were extirpated. According to the method of Takagi et al [cf. Chem. Pharm. Bull., 8, 716 (1958)], tracheal chain strips was prepared, and the sample was suspended on Magnus apparatus under addition of load of 0.5 g. The test was carried out at 37° C. of liquid temperature. After position of tonus was examined with histamine (10^-6 g/ml) and isoproterenol (10^-7 g/ml), the test compound dissolved in a mixture of dimethyl sulfoxide and physiological saline was added thereto, and the test compound was investigated with respect to the effect on smooth musculus trachealis. Theophylline was used as a positive comparative drug. The relaxation and the contraction of smooth musculus trachealis were recorded on servocorder (SR 6342: commercially available from Watanabe Instruments Corp.) by connecting Isotonic Transducer (TD-1125: commercially available from Nihon Kohden Kogyo Co., Ltd.) to a balancing box."}, "[2]": {"system": "carrageenin edema in a foot-pad of rat", "assay": "Effect on carrageenin edema in a foot-pad of rat", "type": "in vivo, rat (male Wister)", "conditions": "50 mg/kg p.o., 4 hours after carrageenin", "description": "The test was carried out according to the modified method on a method of Winter et al [Proc. Soc. Exp. Biol Med., 111, 544-547 (1962)]. Five male Wister rats weighing 148 to 162 g which were subjected to fasting for 24 hours were used as one group.\nThe test compound was suspended in 0.5% aqueous solution of CMC, and the suspension was administered orally in a amount of 50 mg/kg. After 60 minutes, 0.1 ml of 1% carrageenin solution in physiological saline was injected subcutaneously into the foot-pad of the left hind foot. Four hours after the injection of carrageenin, the volume of the foot-pad was measured by the apparatus for measurement of foot-pad volume in rat (commercially available from Ugobasile).\nSwelling volume was calculated from the difference between a volume of foot-pad before inflaming the foot-pad, i.e. normal volume and that after inflaming it. Effect of a test compound was expressed as inhibition rate against swelling by calculating percentage in comparison with the 0.5% CMC administration group.\nIndomethacin (commercially available from Merck Co.) was used as a positive comparative drug."}}, "note": "“And” between values parts separate entries of the source, which are not always exact repeats. Equal values may be shown once.", "data": [{"smiles": "CC(C)c1cccc2n(Cc3ccc(F)cc3)c(=O)c(-c3nnn[nH]3)c-2c1", "note": "[Example 9, 1-(4-Fluorobenzyl)-5-iso-propyl-3-(5-tetrazolyl)-1-azaazulane-2-one]", "values": [{"measurement": "EC50", "setting": "[1]", "result": 8.6, "unit": "µg/mL"}, {"measurement": "Swelling volume 4 hours after inflaming, mean ± standard error", "setting": "[2]", "result": "0.55 mL and 0.55 ± 0.032 mL"}, {"measurement": "Inhibition rate against swelling", "setting": "[2]; vs 0.5% CMC group", "result": 38.9, "unit": "%"}]}]}
